Measurements published in ChEMBL document CHEMBL4732254, “Novel monocyclic amide-linked phenol derivatives without mitochondrial toxicity have potent uric acid-lowering activity” (Bioorg Med Chem Lett, 2021).
Calls of active or inactive are those of the source. The calls are words filed in the database; no cut-off is given here.

Legend:
[1] = biological target: T1, Solute carrier family 22 member 12 (Homo sapiens, UniProt Q96S37); assay: Inhibition of URAT1 (unknown origin)-mediated uric acid uptake at 3 uM relative to control
T1 sequence (Q96S37 whole entry): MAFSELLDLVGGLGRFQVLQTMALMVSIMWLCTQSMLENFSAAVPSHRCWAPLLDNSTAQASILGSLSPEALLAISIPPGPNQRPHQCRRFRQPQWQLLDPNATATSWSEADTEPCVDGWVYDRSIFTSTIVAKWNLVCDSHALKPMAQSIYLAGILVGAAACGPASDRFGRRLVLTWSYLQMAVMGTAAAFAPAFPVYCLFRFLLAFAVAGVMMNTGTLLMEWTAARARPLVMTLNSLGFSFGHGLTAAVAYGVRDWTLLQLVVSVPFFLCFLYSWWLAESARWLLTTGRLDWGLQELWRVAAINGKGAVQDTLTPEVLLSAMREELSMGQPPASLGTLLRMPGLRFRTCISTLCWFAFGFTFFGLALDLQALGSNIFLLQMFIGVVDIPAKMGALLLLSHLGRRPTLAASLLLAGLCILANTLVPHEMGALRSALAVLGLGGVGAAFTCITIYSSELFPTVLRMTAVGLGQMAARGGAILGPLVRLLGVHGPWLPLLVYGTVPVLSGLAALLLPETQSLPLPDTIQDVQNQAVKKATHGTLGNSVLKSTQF

[2] = Inhibition of uric acid uptake in human RPTEC; type: functional, tissue-based
[3] = Hepatotoxicity assessed as induction of mitochondrial (unknown origin) toxicity by measuring mitochondrial inhibitory activity at 100 uM relative to control; settings: mitochondria (unknown origin)
[4] = Hepatotoxicity assessed as induction of mitochondrial (unknown origin) toxicity by measuring mitochondrial inhibitory activity; settings: mitochondria (unknown origin)
[5] = Drug excretion in rat urine at 3 mg/kg, po measured for 4 hrs; type: ADME, organism-based; settings: read-out: Drug excretion
[6] = biological target: Cytochrome P450 2C9 (Homo sapiens, UniProt P11712); assay: Inhibition of CYP2C9 (unknown origin); type: ADME
Sequence of Cytochrome P450 2C9 (P11712 whole entry): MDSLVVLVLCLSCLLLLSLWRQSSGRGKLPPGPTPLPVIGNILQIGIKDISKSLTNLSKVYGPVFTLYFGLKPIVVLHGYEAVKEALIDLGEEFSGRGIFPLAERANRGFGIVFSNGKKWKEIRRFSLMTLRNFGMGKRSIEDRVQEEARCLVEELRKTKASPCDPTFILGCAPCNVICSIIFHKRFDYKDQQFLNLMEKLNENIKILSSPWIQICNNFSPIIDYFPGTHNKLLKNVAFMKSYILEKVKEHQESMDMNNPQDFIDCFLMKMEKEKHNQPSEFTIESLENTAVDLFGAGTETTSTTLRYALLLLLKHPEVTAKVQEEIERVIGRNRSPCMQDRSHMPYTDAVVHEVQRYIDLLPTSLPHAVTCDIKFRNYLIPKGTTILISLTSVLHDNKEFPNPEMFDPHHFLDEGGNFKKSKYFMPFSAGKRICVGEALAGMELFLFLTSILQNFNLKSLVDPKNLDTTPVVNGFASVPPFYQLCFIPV

[7] = Cmax in rat at 3 mg/kg, po; type: ADME, organism-based; set-up: route oral, dose 3 mg/kg; settings: in vivo
[8] = tested on: Sapajus apella; assay: Uricosuric activity in Cebus apella assessed as decrease in plasma urate level at 300 mg/kg, po measured for 24 hrs; type: functional, organism-based

SMILES | inhibition at 3 µM [1] | IC50 [2] | dose excreted at 4 h [5] | IC50 [6] | Cmax [7] | inhibition at 100 µM [3] | IC50 [4] | Activity [8]
N#Cc1cc(C(=O)N2CCC2)cc(C(F)(F)F)c1O | 75% | > 1000 µM | – | – | – | 17% | – | –
CCc1cc(C(=O)n2cccc2)cc(C#N)c1O | 83% | > 1000 µM | – | – | – | – | 6.7 µM | –
N#Cc1cc(C(=O)N2CC=CC2)cc(C2CC2)c1O | 69% | > 1000 µM | – | – | – | -7% | – | –
O=C(C1=CCCC1)c1cc(Cl)c(O)c(Cl)c1 | – | – | – | – | – | – | 10 µM | –
CC(C)(C)c1cc(C(=O)N2CCCC2)cc(C#N)c1O | 84% | > 1000 µM | – | – | – | 22% | > 100 µM | –
N#Cc1cc(C(=O)N2CCS(=O)(=O)C2)cc(C(F)(F)F)c1O | 55% | 272 µM | – | – | – | -3% | – | –
CC(C)(C)c1cc(C(=O)N2CCSC2)cc(C#N)c1O | 92% | 257 µM | – | – | – | 77% | 27 µM | –
CSc1cc(C(=O)N2CC=CC2)cc(C#N)c1O | 58% | > 1000 µM | – | – | – | 6% | – | –
CCc1cc(C(=O)N2CCSC2)cc(C#N)c1O | 67% | 124 µM | 9.5% | – | – | 25% | – | –
O=C(c1cc(Br)c(O)c(Br)c1)N1CC=CC1 | – | – | – | – | – | 22% | > 100 µM | –
N#Cc1cc(C(=O)N2CC=CC2)cc(I)c1O | 79% | > 1000 µM | – | – | – | 8% | – | –
CCc1cc(C(=O)N2CC=CC2)cc(C#N)c1O | 54% | > 1000 µM | – | – | – | 17% | > 100 µM | –
CCc1oc2ccccc2c1C(=O)c1cc(Br)c(O)c(Br)c1 [BENZBROMARONE] | 91% | 6.8 µM | – | – | – | – | 3.1 µM | –
O=C(C1=CCCC1)c1cc(Br)c(O)c(Br)c1 | – | – | – | – | – | – | 6.6 µM | –
CCCc1cc(C(=O)N2CC=CC2)cc(C#N)c1O | 70% | > 1000 µM | – | – | – | 7% | – | –
N#Cc1cc(C(=O)N2CCCC2)cc(C(F)(F)F)c1O | 66% | > 1000 µM | – | – | – | 18% | – | –
CCCc1cc(C(=O)N2CC=CC2)cc(C(F)(F)F)c1O | 49% | 903 µM | – | – | – | 47% | – | –
N#Cc1cc(C(=O)N2CC=CC2)cc(Cl)c1O | 66% | > 1000 µM | – | – | – | 5% | – | –

The next lines start with results.

inhibition at 3 µM [1] | IC50 [2] | dose excreted at 4 h [5] | IC50 [6] | Cmax [7] | SMILES | inhibition at 100 µM [3] | IC50 [4] | Activity [8]
25% | > 1000 µM | – | – | – | Cc1cc(C(=O)N2CC=CC2)cc(C#N)c1O | -10% | – | –
88% | 137 µM | 10% | 94 µM | 2220 ng/mL | CC1=CCN(C(=O)c2cc(C#N)c(O)c(C(F)(F)F)c2)C1 | 9% | – | –
62% | 614 µM | – | – | – | N#Cc1cc(C(=O)N2CCSC2)cc(C#N)c1O | 23% | – | –
– | – | – | 5.7 µM | – | O=C(c1cc(Cl)c(O)c(Cl)c1)N1CS(=O)(=O)c2ccccc21 [DOTINURAD] | – | – | –
71% | > 1000 µM | – | – | – | CC(C)(C)c1cc(C(=O)N2CCC2)cc(C#N)c1O | 41% | – | –
83% | 818 µM | 23% | 52 µM | 2610 ng/mL | N#Cc1cc(C(=O)N2CC=CC2)cc(C(F)(F)F)c1O | -1% | – | Active
69% | 747 µM | – | – | – | N#Cc1cc(C(=O)N2CC=CC2)cc(Br)c1O | 0% | – | –
92% | 311 µM | – | – | – | CC(C)(C)c1cc(C(=O)N2CC=CC2)cc(C#N)c1O | 60% | 64 µM | –
72% | 401 µM | – | – | – | N#Cc1cc(C(=O)N2CCSC2)cc(Br)c1O | 23% | – | –
84% | 202 µM | 9% | > 100 µM | 3700 ng/mL | N#Cc1cc(C(=O)N2CCSC2)cc(C(F)(F)F)c1O | 29% | – | –
